# Patent US8071768B2, “Alkylquinoline and alkylquinazoline kinase modulators” (Janssen Pharmaceutica, N.V., priority 2005, dated 2011)
# Molecular target: T1, TrkB (Homo sapiens, UniProt Q16620)
# T1 construct: purchased Upstate 14-507M
# Assay: Trk B Fluorescence Polarization Kinase Assay
# Format: biochemical
# Conditions: uncertainty ±10%
# Description: Trk B Fluorescence Polarization Kinase Assay (TrkB IC50 Data)
# The compounds of the present invention are also specific inhibitors of TrkB. Selection of preferred compounds of Formula I for use as TrkB inhibitors was performed in the following manner. The TrkB assay utilized the fluorescein-labeled phosphopeptide and the anti-phosphotyrosine antibody included in the Panvera Phospho-Tyrosine Kinase Kit (Green) supplied by Invitrogen. When TrkB phosphorylated poly Glu4Tyr, the fluorescein-labeled phosphopeptide was displaced from the anti-phosphotyrosine antibody by the phosphorylated poly Glu4Tyr, thus decreasing the FP value. The TrkB kinase reaction was incubated at room temperature for 30 minutes under the following conditions: 50 nM TrkB (Upstate, catalog # 14-507M), 20 ug/mL poly Glu4Tyr, 150 uM ATP, 5 mM MgCl2, 1% compound in DMSO. The kinase reaction was stopped with the addition of EDTA. The fluorescein-labeled phosphopeptide and the anti-phosphotyrosine antibody were added and incubated for 30 minutes at room temperature. Data points were an average of triplicate samples. Inhibition and IC50 data analysis were done with GraphPad Prism using a non-linear regression fit with a multiparamater, sigmoidal dose-response (variable slope) equation.
# T1 sequence (Q16620 32-822): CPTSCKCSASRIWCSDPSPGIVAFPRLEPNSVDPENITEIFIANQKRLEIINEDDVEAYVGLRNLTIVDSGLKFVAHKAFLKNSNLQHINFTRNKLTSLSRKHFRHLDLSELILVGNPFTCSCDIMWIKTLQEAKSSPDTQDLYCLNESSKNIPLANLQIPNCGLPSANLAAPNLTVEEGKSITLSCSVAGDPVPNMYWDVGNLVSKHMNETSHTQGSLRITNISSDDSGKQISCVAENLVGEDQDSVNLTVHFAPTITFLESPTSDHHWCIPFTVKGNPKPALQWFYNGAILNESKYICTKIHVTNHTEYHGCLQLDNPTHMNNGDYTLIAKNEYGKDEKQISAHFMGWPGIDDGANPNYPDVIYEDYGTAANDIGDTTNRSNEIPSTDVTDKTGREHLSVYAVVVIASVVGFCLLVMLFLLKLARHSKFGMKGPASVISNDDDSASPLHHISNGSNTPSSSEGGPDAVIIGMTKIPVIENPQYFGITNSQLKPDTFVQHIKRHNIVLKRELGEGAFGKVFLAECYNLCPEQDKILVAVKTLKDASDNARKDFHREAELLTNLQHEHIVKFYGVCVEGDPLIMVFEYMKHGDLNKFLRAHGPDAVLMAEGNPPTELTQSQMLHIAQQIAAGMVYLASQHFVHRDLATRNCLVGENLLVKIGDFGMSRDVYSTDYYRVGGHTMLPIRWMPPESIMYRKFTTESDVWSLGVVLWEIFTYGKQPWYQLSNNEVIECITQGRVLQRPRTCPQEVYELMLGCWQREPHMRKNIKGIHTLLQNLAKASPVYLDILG
row,Compound,IC50 [nM]
1,"COc1cc2ncnc(C3CCN(C(=O)Nc4ccc(I)cc4)CC3)c2cc1OC [Compound 2, 4-(6,7-Dimethoxy-quinazolin-4-yl)-piperidine-1-carboxylic acid (4-iodo-phenyl)-amide]",6200
2,"COc1cc2ncnc(C3CCN(C(=O)Nc4ccc(-n5ccnc5)cc4)CC3)c2cc1OC [Compound 3, 4-(6,7-Dimethoxy-quinazolin-4-yl)-piperidine-1-carboxylic acid (4-imidazol-1-yl-phenyl)-amide]",> 42000
3,"CC(C)c1ccc(NC(=O)N2CCC(c3ccnc4ccccc34)CC2)cc1 [Compound 5, 4-Quinolin-4-yl-piperidine-1-carboxylic acid (4-isopropyl-phenyl)-amide]",700
4,"CC(C)Oc1ccc(NC(=O)N2CCC(c3ccnc4ccccc34)CC2)cc1 [Compound 6, 4-Quinolin-4-yl-piperidine-1-carboxylic acid (4-isopropoxy-phenyl)-amide]",800
5,"CC(C)c1ccc(NC(=O)N2CCC(c3ncnc4ccccc34)CC2)cc1 [Compound 7, 4-Quinazolin-4-yl-piperidine-1-carboxylic acid (4-isopropyl-phenyl)-amide]",3300
6,"CC(C)Oc1ccc(NC(=O)N2CCC(c3ncnc4ccccc34)CC2)cc1 [Compound 8, 4-Quinazolin-4-yl-piperidine-1-carboxylic acid (4-isopropoxy-phenyl)-amide]",2400
7,"COc1cc2ncnc(C3CCN(CC(=O)Nc4ccc(C(C)C)cc4)CC3)c2cc1OC [Compound 9, 2-[4-(6,7-Dimethoxy-quinazolin-4-yl)-piperidin-1-yl]-N-(4-isopropyl-phenyl)-acetamide]",500
8,"COc1cc2ncnc(C3CCN(CC(=O)Nc4ccc(OC(C)C)cc4)CC3)c2cc1OC [Compound 10, 2-[4-(6,7-Dimethoxy-quinazolin-4-yl)-piperidin-1-yl]-N-(4-isopropoxy-phenyl)-acetamide]",1000
9,"CC(C)Oc1ccc(NC(=O)N2CCC(c3ncnc4ccc(I)cc34)CC2)cc1 [Compound 11, 4-(6-Iodo-quinazolin-4-yl)-piperidine-1-carboxylic acid (4-isopropoxy-phenyl)-amide]",200
10,"CC(C)Oc1ccc(NC(=O)N2CCC(c3ncnc4ccc(C#CCO)cc34)CC2)cc1 [Compound 12, 4-[6-(3-Hydroxy-prop-1-ynyl)-quinazolin-4-yl]-piperidine-1-carboxylic acid (4-isopropoxy-phenyl)-amide]",500
11,"CCN(CC)CC#Cc1ccc2ncnc(C3CCN(C(=O)Nc4ccc(OC(C)C)cc4)CC3)c2c1 [Compound 13, 4-[6-(3-Diethylamino-prop-1-ynyl)-quinazolin-4-yl]-piperidine-1-carboxylic acid (4-isopropoxy-phenyl)-amide]",1300
12,"CC(C)Oc1ccc(NC(=O)N2CCC(c3ncnc4ccc(C#CCN5CCCCC5)cc34)CC2)cc1 [Compound 14, 4-[6-(3-Piperidin-1-yl-prop-1-ynyl)-quinazolin-4-yl]-piperidine-1-carboxylic acid (4-isopropoxy-phenyl)-amide]",300
13,"CC(C)Oc1ccc(NC(=O)N2CCC(c3ncnc4ccc(C#CCN5CCOCC5)cc34)CC2)cc1 [Compound 15, 4-[6-(3-Morpholin-4-yl-prop-1-ynyl)-quinazolin-4-yl]-piperidine-1-carboxylic acid (4-isopropoxy-phenyl)-amide]",800
14,"CC(C)c1ccc(NC(=O)CN2CCC(c3ncnc4ccccc34)CC2)cc1 [Compound 16, N-(4-Isopropyl-phenyl)-2-(4-quinazolin-4-yl-piperidin-1-yl)-acetamide]",2600
15,"COc1cc2ncnc(C3CCN(C(=O)Nc4ccc(N5CCCCC5)cc4)CC3)c2cc1OC [Compound 19, 4-(6,7-Dimethoxy-quinazolin-4-yl)-piperidine-1-carboxylic acid (4-piperidin-1-yl-phenyl)-amide]",2700
16,"COc1cc2ncnc(C3CCN(C(=O)Nc4ccc(C5CCCCC5)cc4)CC3)c2cc1OC [Compound 21, 4-(6,7-Dimethoxy-quinazolin-4-yl)-piperidine-1-carboxylic acid (4-cyclohexyl-phenyl)-amide]",600
17,"COc1cc2ncnc(C3CCN(C(=O)Nc4ccc(CO)cc4)CC3)c2cc1OC [Compound 22, 4-(6,7-Dimethoxy-quinazolin-4-yl)-piperidine-1-carboxylic acid (4-hydroxymethyl-phenyl)-amide]",17700
18,"COc1cc2ncnc(C3CCN(C(=O)Nc4ccc5[nH]ccc5c4)CC3)c2cc1OC [Compound 23, 4-(6,7-Dimethoxy-quinazolin-4-yl)-piperidine-1-carboxylic acid (1H-indol-5-yl)-amide]",13300
19,"COc1cc2ncnc(C3CCN(C(=O)Nc4ccc5ncsc5c4)CC3)c2cc1OC [Compound 24, 4-(6,7-Dimethoxy-quinazolin-4-yl)-piperidine-1-carboxylic acid benzothiazol-6-ylamide]",35000
20,"COc1cc2ncnc(C3CCN(C(=O)Nc4ccc(NC(C)=O)cc4)CC3)c2cc1OC [Compound 25, 4-(6,7-Dimethoxy-quinazolin-4-yl)-piperidine-1-carboxylic acid (4-acetylamino-phenyl)-amide]",> 42000
21,"COc1cc2ncnc(C3CCN(C(=O)Nc4ccc(N(C)C)cc4)CC3)c2cc1OC [Compound 26, 4-(6,7-Dimethoxy-quinazolin-4-yl)-piperidine-1-carboxylic acid (4-dimethylamino-phenyl)-amide]",9400
22,"COc1cc2ncnc(C3CCN(C(=O)Nc4ccc5c(c4)CCO5)CC3)c2cc1OC [Compound 27, 4-(6,7-Dimethoxy-quinazolin-4-yl)-piperidine-1-carboxylic acid (2,3-dihydro-benzofuran-5-yl)-amide]",9400
23,"COc1cc2ncnc(C3CCN(C(=O)Cc4ccc(C(C)C)cc4)CC3)c2cc1OC [Compound 28, 1-[4-(6,7-Dimethoxy-quinazolin-4-yl)-piperidin-1-yl]-2-(4-isopropyl-phenyl)-ethanone]",100
24,"CC(C)Oc1ccc(NC(=O)N2CCC(c3ncnc4cc(Cl)ccc34)CC2)cc1 [Compound 29, 4-(7-Chloro-quinazolin-4-yl)-piperidine-1-carboxylic acid (4-isopropoxy-phenyl)-amide]",500
25,"CC(C)c1ccc(NC(=O)N2CCC(c3ncnc4cc(Cl)ccc34)CC2)cc1 [Compound 30, 4-(7-Chloro-quinazolin-4-yl)-piperidine-1-carboxylic acid (4-isopropyl-phenyl)-amide]",700
26,"COc1ccc2c(C3CCN(C(=O)Nc4ccc(OC(C)C)cc4)CC3)ncnc2c1 [Compound 31, 4-(7-Methoxy-quinazolin-4-yl)-piperidine-1-carboxylic acid (4-isopropoxy-phenyl)-amide]",400
27,"COc1ccc2c(C3CCN(C(=O)Nc4ccc(C(C)C)cc4)CC3)ncnc2c1 [Compound 32, 4-(7-Methoxy-quinazolin-4-yl)-piperidine-1-carboxylic acid (4-isopropyl-phenyl)-amide]",500
28,"CC(C)Oc1ccc(NC(=O)N2CCC(c3ncnc4cc(OCCCN5CCCCC5)ccc34)CC2)cc1 [Compound 33, 4-(7-(3-Piperidin-1-yl-propoxy)-quinazolin-4-yl)-piperidine-1-carboxylic acid (4-isopropoxy-phenyl)-amide]",900
